Assays:
Assay in all cases: relative viability (nuclei count vs DMSO), 5 days (fraction); higher = more cells survive
NCI-H596 = system: NCI-H596
Procedure, shortened: (§1)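 Lung cancer cell lines were seeded in 1536-well plates and dosed by pin tool the next day, with either a single drug or a fixed anchor-drug dose combined with five library-drug doses (not always all listed) spaced in √10 steps. Five days later, one step fixed the cells and stained their nuclei (final 0.05% Triton X-100, 1% formaldehyde, 1 ug/ml Hoechst), and nuclei were counted on 4× images. Relative viability is the nuclei count in treated wells divided by the count in vehicle wells, and each value is the median of duplicate plates.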

NCI-H1666 = system: NCI-H1666
Procedure, shortened: as §1

NCI-H23 = system: NCI-H23
Procedure, shortened: as §1

NCI-H1944 = system: NCI-H1944
Procedure, shortened: as §1

NCI-H727 = system: NCI-H727
Procedure, shortened: as §1

NCI-H322M = system: NCI-H322M
Procedure, shortened: as §1

201T = system: 201T
Procedure, shortened: as §1

SW 1573 = system: SW 1573
Procedure, shortened: as §1

NCI-H460 = system: NCI-H460
Procedure, shortened: as §1

NCI-H2009 = system: NCI-H2009
Procedure, shortened: as §1

NCI-H2087 = system: NCI-H2087
Procedure, shortened: as §1

HOP-62 = system: HOP-62
Procedure, shortened: as §1

LC-2-ad = system: LC-2-ad
Procedure, shortened: as §1

NCI-H1651 = system: NCI-H1651
Procedure, shortened: as §1

ChaGo-K-1 = system: ChaGo-K-1
Procedure, shortened: as §1

COR-L23 = system: COR-L23
Procedure, shortened: as §1

NCI-H2126 = system: NCI-H2126
Procedure, shortened: as §1

PC-3 [JPC-3] = system: PC-3 [JPC-3]
Procedure, shortened: as §1

NCI-H1355 = system: NCI-H1355
Procedure, shortened: as §1

CAL-12T = system: CAL-12T
Procedure, shortened: as §1

Q: `Oc1nc(-c2ccc(C(F)(F)F)cc2)nc2c1CSCC2` [XAV939] + CC1(C)CCC(c2ccc(Cl)cc2)=C(CN2CCN(c3ccc(C(=O)NS(=O)(=O)c4ccc(N[C@H](CCN5CCOCC5)CSc5ccccc5)c(S(=O)(=O)C(F)(F)F)c4)cc3)CC2)C1 [Navitoclax] (partner 0.5 µM) was tested. Which relative viability (NCI-H596; first compound 0.08 µM) did it give?
A: 0.887

Q: And the relative viability (NCI-H596; first compound 0.253 µM)?
A: 1.09

Q: What about the relative viability (NCI-H596; first compound 0.8 µM) of the same molecule?
A: 0.901

Q: And the relative viability (NCI-H596; first compound 2.53 µM)?
A: 0.756

Q: What about the relative viability (NCI-H1666; first compound 0.08 µM) of the same molecule?
A: 0.847

Q: And the relative viability (NCI-H1666; first compound 0.253 µM)?
A: 0.721

Q: What about the relative viability (NCI-H1666; first compound 0.8 µM) of the same molecule?
A: 0.903

Q: What about the relative viability (NCI-H1666; first compound 2.53 µM) of the same molecule?
A: 0.469

Q: What about the relative viability (NCI-H23; first compound 0.08 µM) of the same molecule?
A: 0.859

Q: And the relative viability (NCI-H23; first compound 0.253 µM)?
A: 0.776

Q: And the relative viability (NCI-H23; first compound 0.8 µM)?
A: 0.531

Q: What about the relative viability (NCI-H23; first compound 2.53 µM) of the same molecule?
A: 0.755

Q: What about the relative viability (NCI-H1944; first compound 0.08 µM) of the same molecule?
A: 1.07

Q: What about the relative viability (NCI-H1944; first compound 0.253 µM) of the same molecule?
A: 0.986

Q: And the relative viability (NCI-H1944; first compound 0.8 µM)?
A: 1.01

Q: What about the relative viability (NCI-H1944; first compound 2.53 µM) of the same molecule?
A: 1.1

Q: And the relative viability (NCI-H727; first compound 0.08 µM)?
A: 0.407

Q: What about the relative viability (NCI-H727; first compound 0.253 µM) of the same molecule?
A: 0.231

Q: What about the relative viability (NCI-H727; first compound 0.8 µM) of the same molecule?
A: 0.362

Q: And the relative viability (NCI-H727; first compound 2.53 µM)?
A: 0.44

Q: What about the relative viability (NCI-H322M; first compound 0.08 µM) of the same molecule?
A: 1.26

Q: What about the relative viability (NCI-H322M; first compound 0.253 µM) of the same molecule?
A: 0.748

Q: What about the relative viability (NCI-H322M; first compound 0.8 µM) of the same molecule?
A: 1.21

Q: What about the relative viability (NCI-H322M; first compound 2.53 µM) of the same molecule?
A: 1.03

Q: What about the relative viability (201T; first compound 0.08 µM) of the same molecule?
A: 1.21

Q: What about the relative viability (201T; first compound 0.253 µM) of the same molecule?
A: 1.13

Q: What about the relative viability (201T; first compound 0.8 µM) of the same molecule?
A: 1.09

Q: And the relative viability (201T; first compound 2.53 µM)?
A: 1.16

Q: And the relative viability (SW 1573; first compound 0.08 µM)?
A: 1.16

Q: And the relative viability (SW 1573; first compound 0.253 µM)?
A: 0.957

Q: What about the relative viability (SW 1573; first compound 0.8 µM) of the same molecule?
A: 0.83

Q: What about the relative viability (SW 1573; first compound 2.53 µM) of the same molecule?
A: 0.792

Q: What about the relative viability (NCI-H460; first compound 0.08 µM) of the same molecule?
A: 1.38

Q: And the relative viability (NCI-H460; first compound 0.253 µM)?
A: 1.03

Q: What about the relative viability (NCI-H460; first compound 0.8 µM) of the same molecule?
A: 1.1

Q: What about the relative viability (NCI-H460; first compound 2.53 µM) of the same molecule?
A: 1.16

Q: And the relative viability (NCI-H2009; first compound 0.08 µM)?
A: 1.17

Q: What about the relative viability (NCI-H2009; first compound 0.253 µM) of the same molecule?
A: 1.12

Q: And the relative viability (NCI-H2009; first compound 0.8 µM)?
A: 1.13

Q: And the relative viability (NCI-H2009; first compound 2.53 µM)?
A: 1.06

Q: What about the relative viability (NCI-H2087; first compound 0.08 µM) of the same molecule?
A: 1.13

Q: And the relative viability (NCI-H2087; first compound 0.253 µM)?
A: 0.668

Q: What about the relative viability (NCI-H2087; first compound 0.8 µM) of the same molecule?
A: 1

Q: What about the relative viability (NCI-H2087; first compound 2.53 µM) of the same molecule?
A: 0.95

Q: What about the relative viability (HOP-62; first compound 0.08 µM) of the same molecule?
A: 1.08

Q: And the relative viability (HOP-62; first compound 0.253 µM)?
A: 1.02

Q: What about the relative viability (HOP-62; first compound 0.8 µM) of the same molecule?
A: 0.995

Q: What about the relative viability (HOP-62; first compound 2.53 µM) of the same molecule?
A: 0.932

Q: And the relative viability (LC-2-ad; first compound 0.08 µM)?
A: 0.389

Q: What about the relative viability (LC-2-ad; first compound 0.253 µM) of the same molecule?
A: 0.429

Q: And the relative viability (LC-2-ad; first compound 0.8 µM)?
A: 0.6

Q: And the relative viability (LC-2-ad; first compound 2.53 µM)?
A: 0.428

Q: What about the relative viability (NCI-H1651; first compound 0.08 µM) of the same molecule?
A: 1.12

Q: And the relative viability (NCI-H1651; first compound 0.253 µM)?
A: 1.01

Q: And the relative viability (NCI-H1651; first compound 0.8 µM)?
A: 0.995

Q: And the relative viability (NCI-H1651; first compound 2.53 µM)?
A: 0.894

Q: What about the relative viability (ChaGo-K-1; first compound 0.08 µM) of the same molecule?
A: 0.898

Q: What about the relative viability (ChaGo-K-1; first compound 0.253 µM) of the same molecule?
A: 0.914

Q: And the relative viability (ChaGo-K-1; first compound 0.8 µM)?
A: 0.998

Q: And the relative viability (ChaGo-K-1; first compound 2.53 µM)?
A: 1.04

Q: What about the relative viability (COR-L23; first compound 0.08 µM) of the same molecule?
A: 1

Q: And the relative viability (COR-L23; first compound 0.253 µM)?
A: 0.855

Q: What about the relative viability (COR-L23; first compound 0.8 µM) of the same molecule?
A: 0.948

Q: And the relative viability (COR-L23; first compound 2.53 µM)?
A: 0.892

Q: What about the relative viability (NCI-H2126; first compound 0.08 µM) of the same molecule?
A: 0.773

Q: What about the relative viability (NCI-H2126; first compound 0.253 µM) of the same molecule?
A: 0.653

Q: What about the relative viability (NCI-H2126; first compound 0.8 µM) of the same molecule?
A: 0.813

Q: And the relative viability (NCI-H2126; first compound 2.53 µM)?
A: 0.739

Q: What about the relative viability (PC-3 [JPC-3]; first compound 0.08 µM) of the same molecule?
A: 0.728

Q: What about the relative viability (PC-3 [JPC-3]; first compound 0.253 µM) of the same molecule?
A: 0.737

Q: And the relative viability (PC-3 [JPC-3]; first compound 0.8 µM)?
A: 0.814

Q: What about the relative viability (PC-3 [JPC-3]; first compound 2.53 µM) of the same molecule?
A: 0.724

Q: What about the relative viability (NCI-H1355; first compound 0.08 µM) of the same molecule?
A: 0.913

Q: And the relative viability (NCI-H1355; first compound 0.253 µM)?
A: 0.825

Q: And the relative viability (NCI-H1355; first compound 0.8 µM)?
A: 0.805

Q: And the relative viability (NCI-H1355; first compound 2.53 µM)?
A: 0.637

Q: What about the relative viability (CAL-12T; first compound 0.08 µM) of the same molecule?
A: 1.39

Q: And the relative viability (CAL-12T; first compound 0.253 µM)?
A: 1.07

Q: What about the relative viability (CAL-12T; first compound 0.8 µM) of the same molecule?
A: 1.28

Q: And the relative viability (CAL-12T; first compound 2.53 µM)?
A: 1.03

— the supplement of paper PMC10307832
